The values below are quoted from earlier work in US9675603B2, “Solid pharmaceutical compositions of ppary modulator” (InteKrin Therapeutics, Inc., priority 2010, dated 2017).

Consider `O=S(=O)(Nc1cc(Cl)c(Oc2cnc3ccccc3c2)c(Cl)c1)c1ccc(Cl)cc1Cl.O=S(=O)(O)c1ccccc1` [besylate salt of compound 101, 2,4-Dichloro-N-[3,5-dichloro-4-(quinolin-3-yloxy)-phenyl]-benzenesulfonamide benzenesulfonate salt], for which the “Stability and hygroscopic properties” value (compared to other salts of compound 101, U.S. Pat. No. 7,223,761 B2) is “superior stability and hygroscopic properties”. The Solubility result (in aqueous solvents and in most organic solvents) was “sparingly soluble”.
